# Tested on: HEK293 cells
# Experiment: HEK293 VLCFA-LPC IC50 determination (13C-labeled C26:0 LPC by UHPLC/MS)
# Assay type: cell-based, human
# Conditions: Homo sapiens, HEK293, 48 h, average of one or more replicates; 13C-labeled C26:0 LPC, 48 hours; read-out: Average HEK293 IC50
# Method in brief: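 Suspension HEK293 cells (final 0.5 million/mL after mixing with equal volume) incubated 48 hours with compound plus 13C-acetate (1.0 mg/mL in added media), shaking at 37° C. Lipids extracted with hexane/isopropanol or methanol, C13:0 LPC standard. UHPLC/MS of 13C-labeled C26:0 LPC (638.500/104.100 m/z); IC50 by four-parameter fit.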
row,Structure (SMILES),IC50 [nM]
1,"CC(C)(O)c1ncc(-n2ccc(NC(=O)C3(c4ccccc4F)CC3)n2)cc1F [Compound 354, N-[1-[5-fluoro-6-(1-hydroxy-1-methyl-ethyl)-3-pyridyl]pyrazol-3-yl]-1-(2-fluorophenyl)cyclopropanecarboxamide]",> 5000
2,"Cc1ncnc(C)c1-n1ccc(NC(=O)C2(c3ccccc3F)CC2)n1 [Compound 339, N-[1-(4,6-dimethylpyrimidin-5-yl)pyrazol-3-yl]-1-(2-fluorophenyl)cyclopropanecarboxamide]",> 5000
3,"COc1ncccc1-n1ccc(NC(=O)C2(c3ccccc3F)CC2)n1 [Compound 317, 1-(2-fluorophenyl)-N-[1-(2-methoxy-3-pyridyl)pyrazol-3-yl]cyclopropanecarboxamide]",> 5000
4,"O=C(Nc1ccn(-c2ccnc(F)c2)n1)C1(c2ccccc2)CC1(Cl)Cl (single isomer, unassigned) [Compound 370]",170
5,"O=C(Nc1ccn(-c2ccncc2C(F)(F)F)n1)C1(c2ccccc2F)CC1 [Compound 328, 1-(2-fluorophenyl)-N-[1-[3-(trifluoromethyl)-4-pyridyl]pyrazol-3-yl]cyclopropanecarboxamide]",> 5000

# Same assay, conditions: Homo sapiens, HEK293, HEK293 cells; average of one or more replicates; read-out: Average HEK293 IC50
row,Structure (SMILES),IC50 [nM]
1,"O=C(Cc1cc(F)c(F)c(F)c1)Nc1ccn(-c2ccccc2)n1 [Compound 17, N-(1-phenylpyrazol-3-yl)-2-(3,4,5-trifluorophenyl)acetamide]",> 5000
2,COc1ccc(-n2ccc(NC(=O)C3(c4ccccc4F)CC3)n2)c(OC)c1 [Compound 428],> 5000
3,"O=C(Cc1ccc(F)cc1F)Nc1ccn(-c2ccccc2)n1 [Compound 18, 2-(2,4-difluorophenyl)-N-(1-phenylpyrazol-3-yl)acetamide]",260
4,"CC(C)(C(=O)Nc1ccn(-c2ccccc2)n1)c1ccccc1 [Compound 30, 2-methyl-2-phenyl-N-(1-phenyl-1H-pyrazol-3-yl)propanamide]",320
5,"O=C(Cc1ccccc1)Nc1ccn(-c2ccccc2F)n1 [Compound 185, N-[1-(2-fluorophenyl)pyrazol-3-yl]-2-phenyl-acetamide]",470
6,"O=C(Cc1cccc(F)c1)Nc1ccn(-c2ccccc2)n1 [Compound 49, 2-(3-fluorophenyl)-N-(1-phenylpyrazol-3-yl)acetamide]",1900
7,"O=C(Nc1ccn(-c2ccncc2)n1)C1(c2ccc(F)cn2)CC1 [Compound 489, 1-(5-fluoro-2-pyridyl)-N-[1-(4-pyridyl)pyrazol-3-yl]cyclopropanecarboxamide]",1500
8,"O=C(Nc1ccn(-c2ccc(F)cc2)n1)C1(c2ncccc2F)CC12CC2 (stereo not shown) [Compound 521, N-[1-(4-fluorophenyl)pyrazol-3-yl]-2-(3-fluoro-2-pyridyl)spiro[2.2]pentane-2-carboxamide]",2300
9,"O=C(Cn1cccc1)Nc1ccn(-c2ccnc(F)c2)n1 [Compound 295, N-[1-(2-fluoro-4-pyridyl)pyrazol-3-yl]-2-pyrrol-1-yl-acetamide]",> 5000
10,"COc1ncc(-n2ccc(NC(=O)C3(c4ccccc4F)CC3)n2)s1 [Compound 408, 1-(2-fluorophenyl)-N-[1-(2-methoxythiazol-5-yl)pyrazol-3-yl]cyclopropanecarboxamide]",1000
11,"Cc1ccccc1CC(=O)Nc1ccn(-c2ccccc2)n1 [Compound 44, 2-(o-tolyl)-N-(1-phenylpyrazol-3-yl)acetamide]",240
12,"O=C(Nc1ccn(-c2ccc(F)c(F)c2)n1)C1(c2ccccc2)CC1 [Compound 192, N-[1-(3,4-difluorophenyl)pyrazol-3-yl]-1-phenyl-cyclopropanecarboxamide]",600
13,"O=C(Nc1ccn(-c2ccccc2)n1)C(c1ccccc1)C1CCCC1 (stereo not shown) [Compound 167, 2-cyclopentyl-2-phenyl-N-(1-phenylpyrazol-3-yl)acetamide]",> 5000
14,"O=C(Nc1ccn(-c2ccc(F)cc2)n1)C1(c2cnccn2)CC1 [Compound 494, N-[1-(4-fluorophenyl)pyrazol-3-yl]-1-pyrazin-2-yl-cyclopropanecarboxamide]",> 5000
15,"O=C(Nc1ccn(-c2ncccn2)n1)C1(c2ccccc2F)CC1 [Compound 240, 1-(2-fluorophenyl)-N-(1-pyrimidin-2-ylpyrazol-3-yl)cyclopropanecarboxamide]",4400
16,"Cc1cc(F)ccc1-n1ccc(NC(=O)C2(c3ncccc3F)CC2)n1 [Compound 450, N-(1-(4-fluoro-2-methylphenyl)-1H-pyrazol-3-yl)-1-(3-fluoropyridin-2-yl)cyclopropane-1-carboxamide]",> 5000
17,"Cc1cc(-n2ccc(NC(=O)Cc3ccccc3F)n2)ccn1 [Compound 110, 2-(2-fluorophenyl)-N-[1-(2-methyl-4-pyridyl)pyrazol-3-yl]acetamide]",> 10000
18,"O=C(Cc1ccccc1)Nc1ccn(-c2ccccc2)n1 [Compound 41, 2-phenyl-N-(1-phenylpyrazol-3-yl)acetamide]",73
19,"CCC(C)(C(=O)Nc1ccn(-c2ccnc(F)c2)n1)c1ccccc1 (stereo not shown) [Compound 294, N-[1-(2-fluoro-4-pyridyl)pyrazol-3-yl]-2-methyl-2-phenyl-butanamide]",390
20,"CNc1ncc(-n2ccc(NC(=O)C3(c4ccccc4F)CC3)n2)cc1F [Compound 431, N-[1-[5-fluoro-6-(methylamino)-3-pyridyl]pyrazol-3-yl]-1-(2-fluorophenyl)cyclopropanecarboxamide]",860
21,"O=C(Cc1ccccc1F)Nc1ccn(-c2ccccc2)n1 [Compound 1, 2-(2-fluorophenyl)-N-(1-phenylpyrazol-3-yl)acetamide]",68

row,Structure (SMILES),IC50 [nM]
1,"O=C(Nc1ccn(-c2ccccc2)n1)C1(c2cccc(Cl)c2)CC1 [Compound 19, 1-(3-chlorophenyl)-N-(1-phenylpyrazol-3-yl)cyclopropanecarboxamide]",250
2,"Cc1ccc(C(C)C(=O)Nc2ccn(-c3ccccc3)n2)cc1 (stereo not shown) [Compound 77, N-(1-phenylpyrazol-3-yl)-2-(p-tolyl)propanamide]",3300
3,"COc1ccc(CC(=O)Nc2ccn(-c3ccccc3)n2)cc1 [Compound 45, 2-(4-methoxyphenyl)-N-(1-phenylpyrazol-3-yl)acetamide]",> 5000
4,"COc1cc(-n2ccc(NC(=O)C3(c4cnccn4)CC3)n2)ccn1 [Compound 491, N-[1-(2-methoxy-4-pyridyl)pyrazol-3-yl]-1-pyrazin-2-yl-cyclopropanecarboxamide]",> 5000
5,"C[C@H](C(=O)Nc1ccn(-c2ccccc2)n1)c1ccccc1 [Compound 20, (2S)-2-phenyl-N-(1-phenylpyrazol-3-yl)propanamide]",26
6,"O=C(Cc1ccccc1)Nc1ccn(-c2ccnc(C(F)(F)F)c2)n1 [Compound 123, 2-phenyl-N-[1-[2-(trifluoromethyl)-4-pyridyl]pyrazol-3-yl]acetamide]",1500
7,COc1ccc(-n2ccc(NC(=O)C3(c4ccccc4F)CC3)n2)c(F)c1 [Compound 470],> 2000
8,"O=C(Cc1ccccc1F)Nc1ccn(-c2cnccn2)n1 [Compound 216, 2-(2-fluorophenyl)-N-(1-pyrazin-2-ylpyrazol-3-yl)acetamide]",> 5000
9,"Cc1cc(NC(=O)C2(c3ccccc3F)CC2)nn1-c1ccccc1 [Compound 386, 1-(2-fluorophenyl)-N-(5-methyl-1-phenyl-1H-pyrazol-3-yl)cyclopropane-1-carboxamide]",> 5000
10,"O=C(Nc1ccn(-c2ccccc2)n1)C1(c2ccccc2)CCCCC1 [Compound 142, 1-phenyl-N-(1-phenylpyrazol-3-yl)cyclohexanecarboxamide]",> 5000
11,"O=C(Cc1c(Cl)cccc1Cl)Nc1ccn(-c2ccccc2)n1 [Compound 70, 2-(2,6-dichlorophenyl)-N-(1-phenylpyrazol-3-yl)acetamide]",> 2000
12,"O=C(Nc1ccn(-c2cncc(F)c2)n1)C1(c2ncccc2F)CC12CC2 (racemic) [Compound 473, 1-(3-fluoropyridin-2-yl)-N-(1-(5-fluoropyridin-3-yl)-1H-pyrazol-3-yl)spiro[2.2]pentane-1-carboxamide]",430
13,"O=C(Nc1ccn(-c2ccccc2)n1)C1(c2ccc(Cl)cc2)CC1 [Compound 23, 1-(4-chlorophenyl)-N-(1-phenylpyrazol-3-yl)cyclopropanecarboxamide]",830
14,"O=C(Nc1ccn(-c2ccnc(F)c2)n1)C1(c2cc(F)ccc2F)CC1 [Compound 260, 1-(2,5-difluorophenyl)-N-[1-(2-fluoro-4-pyridyl)pyrazol-3-yl]cyclopropanecarboxamide]",170
15,"O=C(Cc1ccon1)Nc1ccn(-c2ccnc(F)c2)n1 [Compound 304, N-[1-(2-fluoro-4-pyridyl)pyrazol-3-yl]-2-isoxazol-3-yl-acetamide]",> 5000
16,"O=C(Cc1ccccc1)Nc1ccn(-c2cccc(F)c2)n1 [Compound 127, N-[1-(3-fluorophenyl)pyrazol-3-yl]-2-phenyl-acetamide]",810
17,"CC1(C)CC1(C(=O)Nc1ccn(-c2cncc(F)c2)n1)c1ncccc1F (stereo not shown) [Compound 511, 1-(3-fluoro-2-pyridyl)-N-[1-(5-fluoro-3-pyridyl)pyrazol-3-yl]-2,2-dimethyl-cyclopropanecarboxamide]",310
18,"O=C(Nc1ccn(-c2cncc(F)c2)n1)C1(c2ccccn2)CC1 [Compound 464, N-[1-(5-fluoro-3-pyridyl)pyrazol-3-yl]-1-(2-pyridyl)cyclopropanecarboxamide]",130
19,"Cc1cc(NC(=O)C2(c3ncccn3)CC2)nn1-c1ccc(F)cc1F [Compound 533, N-[1-(2,4-difluorophenyl)-5-methyl-pyrazol-3-yl]-1-pyrimidin-2-yl-cyclopropanecarboxamide]",> 2000
20,"O=C(Nc1ccn(-c2cncc(Cl)c2)n1)C1(c2ncccc2F)CC1 [Compound 455, N-[1-(5-chloro-3-pyridyl)pyrazol-3-yl]-1-(3-fluoro-2-pyridyl)cyclopropanecarboxamide]",100

# Reference: US20180251431A1 (VERTEX PHARMACEUTICALS INCORPORATED, priority 2016, published 2018)
